A short description of the series: activity coefficient (dimensionless); of the first substance listed, at infinite dilution; xn = mol fraction of the nth substance listed. To be noted: Liquid, x1 = 0.

Drawing on the NIST ThermoML archive (doi:10.1016/j.jct.2004.11.005), this text covers activity coefficient for 23 molecules.

± gives the expanded uncertainty stated by the source.

For the molecule `C=CCC` [1-butene] + CCC(O)CC, the activity coefficient reads like this: (259.96 K) 3.27 ± 0.1; (270.02 K) 3.16 ± 0.09; (280 K) 3.05 ± 0.09; (290 K) 2.96 ± 0.09; (300 K) 2.86 ± 0.09; (310.01 K) 2.72 ± 0.08. Moreover, the activity coefficient was 2.61 ± 0.08 (320 K) and 2.49 ± 0.07 (330 K).
On to `CCCC` [butane] + CCCC(C)O, for which the activity coefficient reads like this: (249.93 K) 3.4 ± 0.1; (269.96 K) 3.38 ± 0.1; (290 K) 3.24 ± 0.1; (310 K) 3.11 ± 0.09; (330 K) 2.94 ± 0.09.
On to `C=CC=C` [1,3-butadiene] + CCC(O)CC, for which the activity coefficient stood at 3.18 ± 0.1 (259.98 K); 3.03 ± 0.09 (270.02 K); 2.92 ± 0.09 (280 K); 2.75 ± 0.08 (290 K); 2.63 ± 0.08 (300 K).
For `CCC` [propane] + CCC(O)CC, the activity coefficient (259.96 K) came to 3.27 ± 0.1; the activity coefficient (270.02 K) came out at 3.21 ± 0.1; the activity coefficient (280 K) was found to be 3.14 ± 0.09; the activity coefficient (290 K) turned out to be 3.09 ± 0.09; the activity coefficient (300 K) was found to be 3.01 ± 0.09; the activity coefficient (310.01 K) was found to be 2.9 ± 0.09. For the same molecule, the activity coefficient stood at 2.81 ± 0.08 (320 K) and 2.72 ± 0.08 (330 K).
Turning to `C=CC` [propene] + CCC(O)CC, the activity coefficient (259.94 K) was 2.97 ± 0.09; the activity coefficient (270.02 K) was determined as 2.87 ± 0.09; the activity coefficient (280 K) was 2.82 ± 0.08; the activity coefficient (290 K) amounted to 2.74 ± 0.08; the activity coefficient (300 K) worked out at 2.63 ± 0.08; the activity coefficient (310.01 K) was found to be 2.53 ± 0.08. Besides, the activity coefficient (320 K) is 2.42 ± 0.07 and the activity coefficient (330.01 K) came to 2.32 ± 0.07.
In the case of `C=CCC` [1-butene] + CCCCCO, the activity coefficient by setting is: (249.96 K) 2.88 ± 0.09; (269.99 K) 2.87 ± 0.09; (290 K) 2.82 ± 0.08; (310 K) 2.78 ± 0.08; (330 K) 2.7 ± 0.08.
For `C=CC` [propene] + CCCC(C)O, the activity coefficient stood at 2.79 ± 0.08 (249.93 K); 2.77 ± 0.08 (269.99 K); 2.66 ± 0.08 (290 K); 2.53 ± 0.08 (310 K); 2.37 ± 0.07 (330 K).
On to `C/C=C/C` [(E)-2-butene] + CCC(O)CC, for which the activity coefficient was 3.12 ± 0.09 (259.96 K); 3.06 ± 0.09 (270.02 K); 2.96 ± 0.09 (280 K); 2.88 ± 0.09 (290 K); 2.77 ± 0.08 (300 K); 2.67 ± 0.08 (310.01 K). Also, the activity coefficient is, setting by setting: (320 K) 2.54 ± 0.08; (330.01 K) 2.5 ± 0.08.
For the molecule `C=CC=C` [1,3-butadiene] + CCCCCO, the activity coefficient was found to be 2.5 ± 0.08 (249.97 K); 2.51 ± 0.08 (270.01 K); 2.5 ± 0.08 (290 K); 2.46 ± 0.07 (310 K); 2.33 ± 0.07 (330 K).
Consider `C=CC=C` [1,3-butadiene] + CCCC(C)O, for which the activity coefficient (249.94 K) turned out to be 3.01 ± 0.09; the activity coefficient (269.98 K) was 2.89 ± 0.09; the activity coefficient (290 K) was found to be 2.68 ± 0.08; the activity coefficient (310 K) was 2.47 ± 0.07; the activity coefficient (330 K) is 2.27 ± 0.07.
As to `C=C(C)C` [2-methylpropene] + CCCC(C)O, the activity coefficient stood at 3.1 ± 0.09 (249.94 K); 2.99 ± 0.09 (269.98 K); 2.82 ± 0.08 (290 K); 2.63 ± 0.08 (310 K); 2.45 ± 0.07 (330 K).
Regarding `C/C=C/C` [(E)-2-butene] + CCCC(C)O, the activity coefficient is, setting by setting: (249.94 K) 2.9 ± 0.09; (269.99 K) 2.91 ± 0.09; (290 K) 2.81 ± 0.08; (310 K) 2.65 ± 0.08; (330 K) 2.49 ± 0.07.
Turning to `CCC` [propane] + CCCCCO, the activity coefficient amounted to 3.08 ± 0.09 (249.96 K); 3.07 ± 0.09 (269.99 K); 3.08 ± 0.09 (290 K); 3.05 ± 0.09 (310 K); 3 ± 0.09 (330 K).
`C=CC` [propene] + CCCCCO: the activity coefficient by setting is: (249.96 K) 2.59 ± 0.08; (269.99 K) 2.59 ± 0.08; (290 K) 2.6 ± 0.08; (310 K) 2.59 ± 0.08; (330 K) 2.51 ± 0.08.
Regarding `C=CCC` [1-butene] + CCCC(C)O, the activity coefficient reads like this: (249.94 K) 3.04 ± 0.09; (269.99 K) 3.03 ± 0.09; (290 K) 2.86 ± 0.09; (310 K) 2.69 ± 0.08; (330 K) 2.5 ± 0.08.
With `C=C(C)C` [2-methylpropene] + CCC(O)CC, the activity coefficient runs as follows: (259.96 K) 3.25 ± 0.1; (270.02 K) 3.15 ± 0.09; (280 K) 3.04 ± 0.09; (290 K) 2.93 ± 0.09; (300 K) 2.82 ± 0.08; (310.01 K) 2.69 ± 0.08. Further, the activity coefficient by setting is: (320 K) 2.56 ± 0.08; (330.01 K) 2.43 ± 0.07.
With `C=C(C)C` [2-methylpropene] + CCCCCO, the activity coefficient by setting is: (249.97 K) 2.86 ± 0.09; (270.01 K) 2.84 ± 0.09; (290 K) 2.82 ± 0.08; (310 K) 2.76 ± 0.08; (330 K) 2.63 ± 0.08.
As to `CC(C)C` [2-methylpropane] + CCC(O)CC, the activity coefficient by setting is: (259.96 K) 3.66 ± 0.11; (270.02 K) 3.62 ± 0.11; (280 K) 3.53 ± 0.11; (290 K) 3.45 ± 0.1; (300 K) 3.35 ± 0.1; (310.01 K) 3.22 ± 0.1. Besides, the activity coefficient is 3.09 ± 0.09 (320 K) and 2.98 ± 0.09 (330.01 K).
With `CCCC` [butane] + CCCCCO, the activity coefficient is, setting by setting: (249.97 K) 3.43 ± 0.1; (270.01 K) 3.33 ± 0.1; (290 K) 3.31 ± 0.1; (310 K) 3.27 ± 0.1; (330 K) 3.19 ± 0.1.
On to `CCCC` [butane] + CCC(O)CC, for which the activity coefficient was 3.48 ± 0.1 (259.98 K); 3.4 ± 0.1 (270.02 K); 3.36 ± 0.1 (280 K); 3.26 ± 0.1 (290 K); 3.15 ± 0.09 (300 K); 3.04 ± 0.09 (310.01 K). The activity coefficient came out at 2.92 ± 0.09 (320 K) and 2.79 ± 0.08 (330.01 K).
As to `C/C=C/C` [(E)-2-butene] + CCCCCO, the activity coefficient by setting is: (249.96 K) 2.8 ± 0.08; (269.99 K) 2.8 ± 0.08; (290 K) 2.76 ± 0.08; (310 K) 2.76 ± 0.08; (330 K) 2.69 ± 0.08.
On to `CC(C)C` [2-methylpropane] + CCCCCO, for which the activity coefficient was determined as 3.65 ± 0.11 (249.97 K); 3.59 ± 0.11 (270.01 K); 3.56 ± 0.11 (290 K); 3.51 ± 0.11 (310 K); 3.4 ± 0.1 (330 K).
`CC(C)C` [2-methylpropane] + CCCC(C)O: the activity coefficient was determined as 3.66 ± 0.11 (250.01 K); 3.61 ± 0.11 (269.96 K); 3.49 ± 0.1 (290 K); 3.3 ± 0.1 (310 K); 3.1 ± 0.09 (330 K).
